# From publication PMC11855827, “High-Throughput Screening of Five Compound Libraries for Anthelmintic Activity and Toxicity Leads to the Discovery of Two Flavonoid Compounds” (International Journal of Molecular Sciences, 2025)
# Where “and” joins values, the source holds several entries; their conditions need not be identical. Equal values may be shown once. Read-outs that look alike come from different tables or passages of the source.
# System: C. elegans
# [1] = Table S2, C. elegans SS assay, 110 μM, 0 h, averages of 4 data points
# [2] = Table S2, C. elegans SS assay, 110 μM, 24 h, averages of 4 data points
Molecule,Percentage of motility inhibition 0 h [1],Percentage of motility inhibition 24 h [2],Percentage of motility inhibition 0 h (110 µM) [%],Percentage of motility inhibition 24 h (110 µM) [%]
Nc1ncnc2c1ncn2[C@H]1C[C@H](O)[C@@H](COP(=O)([O-])OP(=O)([O-])OP(=O)([O-])O)O1.[Na+].[Na+].[Na+],21%,0%,–,–
CC(=O)O[C@@H]1CC[C@@]2(C)[C@@H](CC[C@]3(C)[C@@H]2[C@H](O)C=C2[C@@H]4[C@@H](C)[C@H](C)CC[C@]4(C)CC[C@]23C)[C@@]1(C)C(=O)O,24%,23%,–,–
O=C(O)[C@@H]1C[C@@H](O)CN1,11%,0%,–,–
CC1(C)CC[C@]2(C(=O)O)CC[C@]3(C)C(=CC[C@@H]4[C@@]5(C)CC[C@H](O[C@@H]6O[C@H](C(=O)O)[C@@H](O)[C@H](O[C@@H]7OC[C@@H](O)[C@H](O)[C@H]7O[C@@H]7O[C@H](CO)[C@@H](O)[C@H](O)[C@H]7O)[C@H]6O)C(C)(C)[C@@H]5CC[C@]43C)[C@@H]2C1,0%,0%,–,–
O=c1c(O[C@@H]2O[C@H](CO)[C@@H](O)[C@H](O)[C@H]2O)c(-c2ccc(O)c(O)c2)oc2cc(O[C@@H]3O[C@H](CO[C@@H]4O[C@H](CO)[C@@H](O)[C@H](O)[C@H]4O)[C@@H](O)[C@H](O)[C@H]3O)cc(O)c12,–,–,0,0
CN[C@@H]1[C@H](O)[C@H](NC)[C@H]2O[C@@]3(O)C(=O)C[C@@H](C)O[C@H]3O[C@@H]2[C@H]1O.Cl.Cl.O.O.O.O.O,16%,2%,–,–
C[C@@H]1O[C@@H](O[C@@H]2[C@@H](O)[C@H](O[C@H]3CC[C@]4(C)[C@H]5CC=C6[C@@H]7CC(C)(C)CC[C@]7(C(=O)O[C@@H]7O[C@H](CO)[C@@H](O)[C@H](O)[C@H]7O)CC[C@@]6(C)[C@]5(C)CC[C@H]4C3(C)C)O[C@H](C(=O)O)[C@H]2O)[C@H](O)[C@H](O)[C@H]1O,6%,0%,–,–
Nc1ccc(C(=O)[O-])c(O)c1.O.O.[Na+],24%,6%,–,–
4'‐O‐Methylbavachalcone,19%,3%,–,–
Nc1nc(=O)c2c([nH]1)NCC(CNc1ccc(C(=O)N[C@@H](CCC(=O)O)C(=O)O)cc1)N2C=O (mixture of isomers) [Folinic acid],11%,20%,–,–
COc1ccc([C@@H]2CC(=O)c3c(O)cc(O)cc3O2)cc1O (racemic) [(Rac)‐Hesperetin],0%,0%,–,–
COc1cc(C2Oc3ccc(-c4cc(=O)c5c(O)cc(O)cc5o4)cc3OC2CO)ccc1O (racemic) [(Rac)‐Hydnocarpin],7%,0%,–,–
c1cncc([C@@H]2CCCCN2)c1 (racemic) [(±) Anabasine],3%,0%,–,–
CN1c2ccccc2C(=O)N2CCc3c([nH]c4ccccc34)[C@@H]21 (racemic) [(±)‐Evodiamine],0%,12%,–,–
Cl.c1cc2c(c3c1CC1c4cc5c(cc4CCN1C3)OCO5)OCO2 (racemic) [(±)‐Stylopine (hydrochloride)],0%,3%,–,–
c1cc2c(c3c1C[C@H]1c4cc5c(cc4CCN1C3)OCO5)OCO2 (racemic) [(±)‐Stylopine],0%,31%,–,–
O[C@H]1CCN2Cc3ccccc3N=C12 (racemic) [(±)‐Vasicine],3%,31%,–,–
NC(N)=NCCCC(N)C(=O)O (racemic) [DL-Arginine],4%,0%,–,–
OC[C@@H](O)[C@@H](O)[C@H](O)[C@H](O)CO (racemic) [DL-Mannitol],0%,15%,–,–
CC1CCC(C(C)C)C(O)C1 (racemic) [DL-Menthol],27%,0%,–,–
O=C[C@H](O)[C@@H](O)[C@H](O)CO (racemic) [DL-Xylose],0%,5%,–,–
Cc1c(C)c2c(c(C)c1O)CCC(C)(CCCC(C)CCCC(C)CCCC(C)C)O2 (racemic) [DL-alpha-Tocopherol],5%,9%,–,–
O=C(Nc1ccccc1F)N[C@H]1N=C(c2ccccc2)c2ccccc2NC1=O (racemic) [RSV604 (racemate)],23%,13%,–,–
CN1[C@H]2C[C@H](OC(=O)[C@H](CO)c3ccccc3)C[C@@H]1[C@@H](O)C2 (racemic) [Racanisodamine],–,0% and 6%,–,–
"COC1=CC(=O)OC(/C=C/c2ccccc2)C1 (single isomer, unassigned; (+)) [(+)-Kavain]",5%,13%,–,–

Molecule,Percentage of motility inhibition 0 h [1],Percentage of motility inhibition 24 h [2],Percentage of motility inhibition 0 h (110 µM) [%],Percentage of motility inhibition 24 h (110 µM) [%]
"CC1(C)C(=O)[C@]2(C)CCC1C2 (single isomer, unassigned; (-)) [(-)-Fenchone]",26%,22%,–,–
"CC1CCC(C(C)C)C(O)C1 (single isomer, unassigned; (-)) [(-)-Menthol]",7% and 6%,–,–,–
C[C@H]1O[C@@H](O[C@@H]2CC[C@@]3(C)[C@@H](CC[C@]4(C)[C@@H]3C=C[C@]35OC[C@@]6(CCC(C)(C)C[C@H]63)[C@@H](O)C[C@]54C)[C@@]2(C)CO)[C@H](O)[C@@H](O)[C@H]1O (stereo in doubt) [Prosaikogenin G],2%,34%,–,–
CC=C1[C@H](O[C@@H]2O[C@H](CO)[C@@H](O)[C@H](O)[C@H]2O)OC=C(C(=O)OC)[C@H]1CC(=O)OC[C@H]1O[C@@H](OCCc2ccc(O)cc2)[C@H](O)[C@@H](O)[C@@H]1O (stereo in doubt) [Specneuzhenide],3%,31%,–,–
CC=C1[C@H](O[C@@H]2O[C@H](CO)[C@@H](O)[C@H](O)[C@H]2O)OC=C(C(=O)OC)[C@H]1CC(=O)OC[C@H]1O[C@@H](OCCc2ccc(O)cc2)[C@H](O)[C@@H](O)[C@@H]1O (stereo in doubt) [Specnuezhenide],1%,13%,–,–
"Cc1ccn(C)n1 [1,3‐Dimethylpyrazole]",6%,3%,–,–
CCCCCCCCCCCCCCCCCCCCCCO [1-Docosanol],7%,8%,–,–
c1cn[nH]c1 [1H‐pyrazole],0%,21%,–,–
"CC(C)C1=CC2C(CCC2(C)O)C(C)(O)CC1 (stereo not drawn) [1αH,5αH-Guaia-6-ene-4β,10β-diol]",0%,27%,–,–
O=C(/C=C/c1ccc(O)c(O)c1)OC1(C(=O)O)C[C@@H](O)C(O)[C@H](O)C1 (stereo partly drawn) [1‐Caffeoylquinic acid],24%,0%,–,–
Cl.OC[C@H]1NC[C@@H](O)[C@@H](O)[C@@H]1O [1‐Deoxymannojirimycin (hydrochloride)],32%,11%,–,–
Cn1cnc2c(ncn2[C@@H]2O[C@H](CO)[C@@H](O)[C@H]2O)c1=N [1‐Methyladenosine],7%,0%,–,–
CCCCCc1cc(=O)c2ccccc2n1C [1‐Methyl‐2‐pentyl‐4(1H)‐quinolinone],44%,30%,–,–
"O=C(O[C@H]1[C@H](Oc2c(-c3ccc(O)c(O)c3)oc3cc(O)cc(O)c3c2=O)O[C@H](CO)[C@H](O)[C@@H]1O)c1cc(O)c(O)c(O)c1 [2""‐O‐Galloylhyperin]",32%,1%,–,–
"O=c1cc(-c2ccc(O)c(O)c2)oc2c(C3OC(CO)C(O)C(O)C3OC3OC(CO)C(O)C(O)C3O)c(O)cc(O)c12 (stereo not drawn) [2""‐O‐beta‐L‐galactopyranosylorientin]",7%,0%,–,–
COc1ccc(-c2oc3c(CC=C(C)C)c(O)cc(O)c3c(=O)c2O[C@@H]2O[C@@H](C)[C@H](O)[C@@H](O)[C@H]2O[C@@H]2O[C@@H](C)[C@H](O)[C@@H](O)[C@H]2O)cc1 [2''‐O‐Rhamnosylicariside II],0%,13%,–,–
CC(=O)c1ccccc1O [2'‐Hydroxyacetophenone],0%,1%,–,–
"c1ccc2c(Cc3[nH]c4ccccc4c3Cc3c[nH]c4ccccc34)c[nH]c2c1 [2,3‐Bis(3‐indolylmethyl)indole]",21%,9%,–,–
"CCCCCC(=O)Oc1c(Br)cc(Br)cc1Br [2,4,6‐Tribromophenyl caproate]",48%,57%,–,–
"Cc1ccc2nc(C)ccc2c1 [2,6‐Dimethylquinoline]",0%,6%,–,–
OCc1ccc(O)cn1 [2‐Hydroxymethyl‐5‐hydroxypyridine],0%,0%,–,–
COc1ccc(-c2cc(=O)c3c(OC)c(OC)c(OC)c(OC)c3o2)cc1O [3'‐Demethylnobiletin],0%,0%,–,–
O=c1c(-c2ccc(O)c(O)c2)coc2c([C@@H]3O[C@H](CO)[C@@H](O)[C@H](O)[C@H]3O)c(O)ccc12 [3'‐Hydroxypuerarin],1%,0%,–,–
COc1cccc(-c2oc3ccccc3c(=O)c2O)c1 [3'‐Methoxyflavonol],9%,0%,–,–
